# Test results taken from patent publication US10807992B2, “Single enantiomer antiparasitic compounds” (priority 2017, dated 2020).
# System: Rhipicephalus sanguineus
# Assay: In vitro contact activity against adult ticks (coated vial), R. sanguineus
# Conditions: for mortality at 0.006 µM: Trial 3, dose 0.006 μM; for mortality at 0.024 µM: Trial 3, dose 0.024 μM; for mortality at 0.098 µM: Trial 3, dose 0.098 μM; for mortality at 0.39 µM: Trial 3, dose 0.39 μM; for mortality at 1.56 µM: Trial 3, dose 1.56 μM; for mortality at 6.25 µM: Trial 3, dose 6.25 μM; for mortality at 25 µM: Trial 3, dose 25 μM; for mortality at 100 µM: Trial 3, dose 100 μM
# Experimental: Rhipicephalus sanguineus, Dermacentor variabilis, Amblyomma americanum, (Ecto Services, Inc., Henderson, N.C.) and Ixodes scapularis (Oklahoma State University, Stillwater, Okla.) aged between 2-4 weeks post molt were held in an environmental chamber at 24° C., 80% humidity with 12-hour light/dark cycles.
# For tick assays, vial caps were pre-drilled with a single hole in the center of each cap to allow air exchange. A filter paper (Whatman Grade 540 2.1 cm) was placed in the lid of each vial. An aliquot from each compound stock was added to an acetone/triton solution to achieve the desired top doses for the study. Serial dilutions were conducted from the top dose (i.e. 100 ppm) to achieve the desired titration range for EC50 and EC90 determination. For R. sanguineus, D. variabilis, and A. americanum, the final DMSO concentration in each test vial was 0.5%. For I. scapularis, compounds were solubilized directly in an acetone/triton solution due to I. scapularis' sensitivity to DMSO. A 459 μL aliquot of each compound formulation was transferred to a vial containing a Whatman Grade 540 2.1 cm filter paper. Vials were immediately placed on an unheated roller unit to allow for an even coating of the vial walls. After vials were coated, 41 μL of each compound formulation was added to the filter paper embedded in each vial cap. Each cap was allowed to dry. The vials were loosely capped and allowed to dry for a minimum of four hours in a chemical fume hood.
# Compounds tested were: the C1 racemate, C1 (R) enantiomer, and the C1 (S) enantiomer. For Trial 3, the C1 (R) enantiomer and the C1 (S) enantiomer were further chiral purified to achieve >99% purity.
# Ten adult ticks were added to each vial and held at 24° C., 80% humidity with 12-hour light/dark cycles. Adult ticks were assessed for percent mortality at various time points between 2 hours and 48 hours post infestation. Ticks were stimulated on a heated roller unit and evaluated. Ticks showing no movement, or very slow and uncoordinated movement were noted as dead.
smiles,measurement,setting,value
"O=C(CC(F)(F)F)N1CC2(C1)OCc1cc(C3=NS[C@@](c4cc(Cl)c(F)c(Cl)c4)(C(F)(F)F)C3)ccc12 [C1 (S) enantiomer, (S)-1-[6-[5-(3,5-dichloro-4-fluoro-phenyl)-5-(trifluoromethyl)-4H-isothiazol-3-yl]spiro[1H-isobenzofuran-3,3′-azetidine]-1′-yl]-3,3,3-trifluoro-propan-1-one]",mortality at 0.006 µM,"2 h, Rep1",0%
same,mortality at 0.006 µM,"2 h, Rep2",0%
same,mortality at 0.024 µM,"2 h, Rep1",0%
same,mortality at 0.024 µM,"2 h, Rep2",0%
same,mortality at 0.098 µM,"2 h, Rep1",0%
same,mortality at 0.098 µM,"2 h, Rep2",0%
same,mortality at 0.39 µM,"2 h, Rep1",0%
same,mortality at 0.39 µM,"2 h, Rep2",0%
same,mortality at 1.56 µM,"2 h, Rep1",0%
same,mortality at 1.56 µM,"2 h, Rep2",0%
same,mortality at 6.25 µM,"2 h, Rep1",0%
same,mortality at 6.25 µM,"2 h, Rep2",0%
same,mortality at 25 µM,"2 h, Rep1",0%
same,mortality at 25 µM,"2 h, Rep2",0%
same,mortality at 100 µM,"2 h, Rep1",50%
same,mortality at 100 µM,"2 h, Rep2",10%
same,mortality at 0.006 µM,"6 h, Rep1",0%
same,mortality at 0.006 µM,"6 h, Rep2",0%
same,mortality at 0.024 µM,"6 h, Rep1",0%
same,mortality at 0.024 µM,"6 h, Rep2",0%
same,mortality at 0.098 µM,"6 h, Rep1",0%
same,mortality at 0.098 µM,"6 h, Rep2",0%
same,mortality at 0.39 µM,"6 h, Rep1",0%
same,mortality at 0.39 µM,"6 h, Rep2",0%
same,mortality at 1.56 µM,"6 h, Rep1",10%
same,mortality at 1.56 µM,"6 h, Rep2",0%
same,mortality at 6.25 µM,"6 h, Rep1",80%
same,mortality at 6.25 µM,"6 h, Rep2",60%
same,mortality at 25 µM,"6 h, Rep1",90%
same,mortality at 25 µM,"6 h, Rep2",100%
same,mortality at 100 µM,"6 h, Rep1",100%
same,mortality at 100 µM,"6 h, Rep2",100%
same,mortality at 0.006 µM,"12 h, Rep1",0%
same,mortality at 0.006 µM,"12 h, Rep2",0%
same,mortality at 0.024 µM,"12 h, Rep1",0%
same,mortality at 0.024 µM,"12 h, Rep2",0%
same,mortality at 0.098 µM,"12 h, Rep1",0%
same,mortality at 0.098 µM,"12 h, Rep2",0%
same,mortality at 0.39 µM,"12 h, Rep1",10%
same,mortality at 0.39 µM,"12 h, Rep2",10%
same,mortality at 1.56 µM,"12 h, Rep1",40%
same,mortality at 1.56 µM,"12 h, Rep2",50%
same,mortality at 6.25 µM,"12 h, Rep1",100%
same,mortality at 6.25 µM,"12 h, Rep2",100%
same,mortality at 25 µM,"12 h, Rep1",100%
same,mortality at 25 µM,"12 h, Rep2",100%
same,mortality at 100 µM,"12 h, Rep1",100%
same,mortality at 100 µM,"12 h, Rep2",100%
